Results taken from patent US20250170139A1, “AZASETRON FOR THE TREATMENT OF SUDDEN SENSORINEURAL HEARING LOSS” (SENSORION, priority 2022, published 2025).

Columns and labels:
[1] = test system: subjects suffering from sudden sensorineural hearing loss (SSNHL); experiment: Phase 2b/3 study: speech discrimination test, change in word recognition score (WRS) from baseline; format: in vivo, human; details: SENS-401 29 mg/BID
Experimental: (§1) A randomized, double-blind, placebo-controlled, parallel-group phase 2b/3 study was conducted with the aim to assess efficacy and safety of (R)-azasetron in subjects suffering from sudden sensorineural hearing loss. Treatment was administered for 4 weeks (i.e., 28 days) and the study was concluded with an 8-week follow-up at day 84.
(§2) Subjects were included in the study if they presented with sudden sensorineural hearing loss (SSNHL) and met the following criteria: • male or female, • aged at least 18 years old, • subjects with unilateral idiopathic SSNHL or unilateral/bilateral acute acoustic trauma leading to SSNHL defined by both: • at least one hearing threshold of 50 dB or more amongst the 3 most affected contiguous frequencies on pure tone audiometric air conduction testing performed 24 hours or less prior to first study drug intake, and • mean hearing loss of 30 dB or more, averaged across the 3 most affected contiguous frequencies on pure tone audiometric air conduction testing performed 24 hours or less prior to first study treatment, compared with the unaffected contralateral ear or reference values from a pre-existing audiogram (dated less than 2 years) • subjects with sudden hearing loss with onset within 96 hours prior to first study drug intake.
134 subjects were assessed for eligibility according to the criteria listed above. 115 subjects were randomized with a ratio 1:1:1 in the three following groups (i.e., treatment arms): • 38 subjects were included in the group administered for 28 days (i.e., 4 weeks) with placebo, • 38 subjects were included in the group administered for 28 days (i.e., 4 weeks) with a “low” dose of (R)-azasetron, defined as a total daily dose of 58 mg of (R)-azasetron (corresponding to a daily dose of 40 mg free base equivalent); and • 39 subjects were included in the group administered for 28 days (i.e., 4 weeks) with a “high” dose of (R)-azasetron, defined as a total daily dose of 87 mg of (R)-azasetron (corresponding to a daily dose of 60 mg free base equivalent).
Subjects were administered placebo or (R)-azasetron (also designated as SENS-401) for 28 days (i.e., 4 weeks). (R)-azasetron was administered orally twice a day either at a dose of 29 mg/BID (bis in die) or at a dose of 43.5 mg/BID (corresponding to a total daily dose of 40 mg and 60 mg free base equivalent, respectively).
Subjects included in the study were monitored with a first visit at day −4 to day 0 (screening), followed by a visit at day 1 (D1-randomization and inclusion day), day 7 (D7, ±2 days), day 14 (D14, ±2 days), day 28 (D28±3 days−end of treatment), and day 84 (D84±3 days-follow-up visit marking the end of study). Monitoring included audiometric tests (PTA), speech audiometry, numerical rating scales and questionnaires. Additionally, subjects included in the study were closely monitored for adverse events throughout the study.
Additionally, the efficacy of SENS-401 was also assessed by conducting speech audiometry, in particular by conducting a speech discrimination test (also known as word recognition test) to determine a word recognition score (WRS).
Speech discrimination or word recognition is the ability to repeat correctly an open set of monosyllabic words at supra threshold intensity (for example at 60 dB or at 80 dB). The word recognition score (WRS) is thus the percentage of test words correctly repeated by the subject. The test is administered in a quiet room without any competing noise. […]

[2] = test system: subjects suffering from sudden sensorineural hearing loss (SSNHL); experiment: Phase 2b/3 study: change in pure tone audiometry (PTA) from baseline in affected ear; format: in vivo, human
Experimental: as §1, §2
As indicated above, hearing loss was determined with pure tone audiometry (PTA) or pure tone audiometric testing, in particular with pure tone audiometric air conduction testing.
In the present study, pure tone air- and bone-conduction hearing thresholds were determined for each ear (best ear at first) at 0.25, 0.5, 1, 2, 3, 4, 6, and 8 kHz for air conduction and at 0.5, 1, 2, 3, 4 kHz for bone conduction, using the descending method of limits (modified Hughson Westlake procedure as follows: initial descent towards threshold is accomplished in 10-dB steps. Beginning with the first nonresponse, level is increased by 5-dB for each non-response and decreased by 10-dB after each correct detection response). The hearing threshold was defined as the lowest audible level, measured twice out of three presentations to the subject.
The baseline pure tone audiometry test was defined as the last test performed at site within 24 hours prior to the first study drug administration. The PTA was expressed as the average of the hearing threshold (in dB) of the 3 most affected contiguous test frequencies (air conduction). Therefore, a higher PTA corresponds to a higher hearing threshold and thus to a poorer hearing. Conversely, a lower PTA corresponds to a lower hearing threshold and thus to a better hearing.
The hearing loss was defined as the difference between the PTA expressed as the average of the hearing threshold (in dB) at the 3 most affected contiguous test frequencies (air pure tone average) and the corresponding PTA expressed as the average hearing threshold of the contralateral ear or values from a pre-existing audiogram (dated less than 2 years) for the same frequencies (mandatory for bilateral acute acoustic trauma). The contiguous frequencies used to determine the PTA at baseline remained fixed for all subsequent evaluations. In case of bilateral acute acoustic trauma leading to sudden sensorineural hearing loss, the most affected ear according to the inclusion criteria was considered for the analysis. If both ears were equally affected, the right ear was considered.
134 subjects were assessed for eligibility according to the criteria listed above. […]

[3] = day 28, SENS-401 high 43.5 mg/BID, subpopulation PTA at baseline ≥80 dB (idiopathic SSNHL, corticoids)
[4] = day 28, SENS-401 high 43.5 mg/BID, subpopulation PTA at baseline ≥90 dB (idiopathic SSNHL, corticoids)
[5] = day 28, SENS-401 low 29 mg/BID (40 mg/day free base equivalent), ITT overall study population, idiopathic SSNHL who received corticoids
[6] = day 28, SENS-401 low 29 mg/BID, subpopulation PTA at baseline ≥80 dB & initial frequency range ≤2000 Hz (idiopathic SSNHL, corticoids)
[7] = day 84, SENS-401 high 43.5 mg/BID (60 mg/day free base equivalent), overall study population, idiopathic SSNHL who received corticoids
[8] = day 84, SENS-401 high 43.5 mg/BID, subpopulation PTA at baseline ≥80 dB (idiopathic SSNHL, corticoids)
[9] = day 84, SENS-401 high 43.5 mg/BID, subpopulation PTA at baseline ≥90 dB (idiopathic SSNHL, corticoids)
[10] = day 84, SENS-401 high 43.5 mg/BID, subpopulation initial hearing loss ≥91 dB (ASHA Profound; idiopathic SSNHL, corticoids)
[11] = day 84, SENS-401 low 29 mg/BID (40 mg/day free base equivalent), ITT overall study population
[12] = day 84, SENS-401 low 29 mg/BID (40 mg/day free base equivalent), ITT overall study population, idiopathic SSNHL who received corticoids
[13] = day 84, SENS-401 low 29 mg/BID, subpopulation PTA at baseline ≥80 dB & initial frequency range ≤2000 Hz (idiopathic SSNHL, corticoids)
[14] = day 84, SENS-401 low 29 mg/BID, subpopulation initial frequency range ≤2000 Hz (of overall study population)
[15] = day 84, SENS-401 low 29 mg/BID, subpopulation initial hearing loss ≥91 dB (ASHA Profound; idiopathic SSNHL, corticoids)
[16] = day 84, SENS-401 low 29 mg/BID, subpopulation vertigo at baseline (idiopathic SSNHL, corticoids)

In the case of `CN1C(=O)COc2c(C(=O)N[C@H]3CN4CCC3CC4)cc(Cl)cc21` [SENS-401, (R)-azasetron besylate], the “ΔWRS SENS-401 vs placebo” value ([1]; day 28, subpopulation PTA at baseline ≥70 dB (of overall study population)) is reported as 12.9673%, the “ΔWRS SENS-401 vs placebo” value ([1]; day 28, WRS assessed at 60 dB, subpopulation vertigo at baseline) is reported as 35.5287% and the “ΔWRS SENS-401 vs placebo” value ([1]; day 28, WRS at 60 dB, overall study population) is reported as 8.8241%. For the same compound, the “ΔWRS SENS-401 vs placebo” value ([1]; day 84, WRS assessed at 60 dB, subpopulation vertigo at baseline) was 53.1273%, the “change in WRS from baseline (effect vs placebo, in words)” value ([1]; day 84, WRS at 80 dB, subpopulation vertigo at baseline) was “significant beneficial effect” and the “ΔPTA SENS-401 vs placebo” value ([2]; day 28, SENS-401 29 mg/BID (40 mg/day free base equivalent), subpopulation PTA at baseline ≥80 dB (idiopathic SSNHL, corticoids), in dB) was −15.2188. The “ΔPTA SENS-401 vs placebo” value ([2]; day 28, SENS-401 29 mg/BID (40 mg/day free base equivalent), subpopulation PTA at baseline ≥90 dB (idiopathic SSNHL, corticoids), in dB) was −13.9239, the “ΔPTA SENS-401 vs placebo” value ([2]; day 28, SENS-401 29 mg/BID, subpopulation hearing loss at baseline ≥91 dB (idiopathic SSNHL, corticoids)) was −19.8922 dB and the “ΔPTA SENS-401 vs placebo” value ([2]; day 28, SENS-401 29 mg/BID, subpopulation vertigo at baseline (idiopathic SSNHL, corticoids), in dB) was −14.0995. The “ΔPTA SENS-401 vs placebo” value ([2]; day 28, SENS-401 43.5 mg/BID, subpopulation hearing loss at baseline ≥91 dB (idiopathic SSNHL, corticoids), in dB) was −14.8893, the “Mean change in PTA from baseline” value ([2]; day 28, SENS-401 high 43.5 mg/BID oral (60 mg/day free base equivalent) 28 days, ITT overall study population, idiopathic SSNHL who received corticoids) was −41.8636 dB and the “Mean change in PTA from baseline” value [2, 3] was −54.4635 dB. The “ΔPTA SENS-401 vs placebo” value [2, 3] was −17.7765 dB, the “Mean change in PTA from baseline” value [2, 4] was −53.6800 dB and the “ΔPTA SENS-401 vs placebo” value [2, 4] was −23.2680 dB. For the same compound, the “Mean change in PTA from baseline” value [2, 5] was −42.0761 dB, the “ΔPTA SENS-401 vs placebo” value [2, 5] was −4.1236 dB and the “Mean change in PTA from baseline” value [2, 6] was −59.0918 dB. For the same compound, the “ΔPTA SENS-401 vs placebo” value [2, 6] was −21.7623 dB, the “ΔPTA SENS-401 vs placebo” value ([2]; day 84, SENS-401 29 mg/BID (40 mg/day free base equivalent), subpopulation PTA at baseline ≥80 dB (idiopathic SSNHL, corticoids), in dB) was −19.4991 and the “ΔPTA SENS-401 vs placebo” value ([2]; day 84, SENS-401 29 mg/BID (40 mg/day free base equivalent), subpopulation PTA at baseline ≥90 dB (idiopathic SSNHL, corticoids), in dB) was −19.0242. For the same compound, the “Mean change in PTA from baseline” value [2, 7] was −46.3161 dB, the “ΔPTA SENS-401 vs placebo” value [2, 7] was −9.0984 dB and the “Mean change in PTA from baseline” value [2, 8] was −61.2123 dB. The “ΔPTA SENS-401 vs placebo” value [2, 8] was −25.6472 dB, the “Mean change in PTA from baseline” value [2, 9] was −57.7398 dB and the “ΔPTA SENS-401 vs placebo” value [2, 9] was −28.6788 dB. The “Mean change in PTA from baseline” value [2, 10] was −44.9102 dB, the “ΔPTA SENS-401 vs placebo” value [2, 10] was −26.2796 dB and the “Mean change in PTA from baseline” value [2, 11] was −32.4686 dB. For the same compound, the “ΔPTA SENS-401 vs placebo” value [2, 11] was −7.0694 dB, the “Mean change in PTA from baseline” value [2, 12] was −45.9263 dB and the “ΔPTA SENS-401 vs placebo” value [2, 12] was −8.7086 dB. The “Mean change in PTA from baseline” value [2, 13] was −61.7417 dB, the “ΔPTA SENS-401 vs placebo” value [2, 13] was −26.6903 dB and the “Mean change in PTA from baseline” value [2, 14] was −44.6900 dB. For the same compound, the “ΔPTA SENS-401 vs placebo” value [2, 14] was −11.6405 dB, the “Mean change in PTA from baseline” value [2, 15] was −46.6683 dB and the “ΔPTA SENS-401 vs placebo” value [2, 15] was −28.0377 dB. For the same compound, the “Mean change in PTA from baseline” value [2, 16] was −44.8233 dB and the “ΔPTA SENS-401 vs placebo” value [2, 16] was −21.8040 dB.
